Results published in ChEMBL document CHEMBL1140148, “Structure-activity studies on a series of a 2-aminopyrimidine-containing histamine H4 receptor ligands” (J Med Chem, 2008).
pKi: −log10 of the molar value.

Legend:
[1] = Cmax in rat at 10 mg/kg, iv; assay type: ADME, organism-based; parameters: dose 10 mg/kg, route intravenous; details: in vivo
[2] = Bioavailability in mouse at 20 mg/kg, po; assay type: ADME, organism-based; details: in vivo
[3] = Terminal volume of distribution in mouse at 5 mg/kg, iv; assay type: ADME, organism-based; parameters: dose 5 mg/kg, route intravenous; details: in vivo, read-out: Vbeta
[4] = Plasma concentration in mouse at 25 umol/kg, ip after 30 mins; assay type: ADME, organism-based
[5] = Terminal volume of distribution in rat at 10 mg/kg, iv; assay type: ADME, organism-based; parameters: dose 10 mg/kg, route intravenous; details: in vivo, read-out: Vbeta
[6] = Cmax in mouse at 20 mg/kg, po; assay type: ADME, organism-based; parameters: dose 20 mg/kg, route oral; details: in vivo
Rattus norvegicus [7] = experiment: Plasma concentration in rat at 30 umol/kg, ip; assay type: ADME, organism-based; details: in vivo
[8] = Cmax in mouse at 5 mg/kg, iv; assay type: ADME, organism-based; parameters: dose 5 mg/kg, route intravenous; details: in vivo
[9] = Half life in rat at 10 mg/kg, po; assay type: ADME, organism-based; parameters: dose 10 mg/kg, route oral; details: in vivo
Rattus norvegicus [10] = experiment: Plasma concentration in rat at 300 umol/kg, ip; assay type: ADME, organism-based; details: in vivo
Rattus norvegicus [11] = experiment: Antiinflammatory activity against carrageenan-induced thermal hyperalgesia in rat assessed as increase in paw withdrawal at 100 umol/kg, ip relative to control; assay type: functional
[12] = Protein binding in ip dosed rat plasma; assay type: ADME, organism-based; details: read-out: PPB (converted)
Rattus norvegicus [13] = experiment: Plasma concentration in rat at 80 umol/kg, ip; assay type: ADME, organism-based; details: in vivo
Rattus norvegicus [14] = experiment: Antiinflammatory activity against carrageenan-induced thermal hyperalgesia in ip dosed rat assessed as increase in paw withdrawal; assay type: functional
[15] = Cmax in rat at 10 mg/kg, po; assay type: ADME, organism-based; parameters: dose 10 mg/kg, route oral; details: in vivo
[16] = Tmax in mouse at 20 mg/kg, po; assay type: ADME, organism-based; parameters: dose 20 mg/kg, route oral; details: in vivo
Mus musculus [17] = experiment: Antiinflammatory activity in zymosan-induced peritonitis in sc dosed BALB/c mouse model assessed as decrease in myeloperoxidase activity in peritoneal lavage; assay type: functional
Mus musculus [18] = experiment: Antiinflammatory activity in ip dosed CD1/ICR mouse assessed as reduction of clobenpropit-induced itching; assay type: functional
[19] = Half life in mouse at 5 mg/kg, iv; assay type: ADME, organism-based; parameters: dose 5 mg/kg, route intravenous; details: in vivo
[20] = Half life in mouse at 20 mg/kg, po; assay type: ADME, organism-based; parameters: dose 20 mg/kg, route oral; details: in vivo
Histamine H3 receptor = Histamine H3 receptor (Homo sapiens, UniProt Q9Y5N1); experiment: Binding affinity to human histamine H3 receptor
Rattus norvegicus [21] = experiment: Plasma concentration in rat at 100 umol/kg, ip; assay type: ADME, organism-based; details: in vivo
Rattus norvegicus [22] = experiment: Antiinflammatory activity against carrageenan-induced hyperalgesia in rat assessed as increase in paw withdrawal at 300 umol/kg, ip relative to control; assay type: functional
[23] = Bioavailability in rat at 10 mg/kg, po; assay type: ADME, organism-based; details: in vivo
[24] = Tmax in rat at 10 mg/kg, po; assay type: ADME, organism-based; parameters: dose 10 mg/kg, route oral; details: in vivo
[25] = Half life in rat at 10 mg/kg, iv; assay type: ADME, organism-based; parameters: dose 10 mg/kg, route intravenous; details: in vivo

Chain of Histamine H3 receptor (Q9Y5N1 whole entry): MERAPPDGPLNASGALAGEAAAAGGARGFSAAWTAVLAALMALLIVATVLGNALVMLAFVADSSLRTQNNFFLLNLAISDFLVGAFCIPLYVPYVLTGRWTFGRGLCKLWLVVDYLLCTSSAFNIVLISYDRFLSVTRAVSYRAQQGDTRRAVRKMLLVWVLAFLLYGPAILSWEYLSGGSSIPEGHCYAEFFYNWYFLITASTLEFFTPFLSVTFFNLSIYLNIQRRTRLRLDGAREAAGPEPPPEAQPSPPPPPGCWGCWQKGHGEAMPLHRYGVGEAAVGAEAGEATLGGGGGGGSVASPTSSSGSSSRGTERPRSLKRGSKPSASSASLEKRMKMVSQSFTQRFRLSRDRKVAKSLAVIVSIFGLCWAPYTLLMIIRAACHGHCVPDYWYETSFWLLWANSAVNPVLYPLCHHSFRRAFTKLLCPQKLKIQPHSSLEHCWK

## CN1CCN(C(=O)c2cc3cc(Cl)ccc3[nH]2)CC1 [JNJ-7777120]
[1]
  Cmax: 1140 ng/mL
[2]
  bioavailability: 24%
[3]
  Vd: 24 L/kg
[4]
  concentration at 0.5 h: 860 ng/mL
[5]
  Vd: 37 L/kg
[6]
  Cmax: 140 ng/mL
Rattus norvegicus [7]
  Cp: 432 ng/mL
[8]
  Cmax: 560 ng/mL
[9]
  half-life: 2.5 h
Rattus norvegicus [10]
  Cp: 4135 ng/mL
Rattus norvegicus [11]
  Activity: 49%
[12]
  fraction unbound: 0.28
Rattus norvegicus [13]
  Cp: 1200 ng/mL
Rattus norvegicus [14]
  ED50: 80 µmol/kg
[15]
  Cmax: 220 ng/mL
[16]
  Tmax: 1.33 h
Mus musculus [17]
  ED50: 61 µmol/kg
Mus musculus [18]
  ED50: 25 µmol/kg
[19]
  half-life: 0.7 h
[20]
  half-life: 1.4 h
Histamine H3 receptor
  pKi: 5.65
Rattus norvegicus [21]
  Cp: 1454 ng/mL
Rattus norvegicus [22]
  Activity: 96%
[23]
  bioavailability: 47%
[24]
  Tmax: 0.25 h
[25]
  half-life: 1.7 h
